Measured values from PMC6331893, “Autodisplay of Human Hyaluronidase Hyal-1 on Escherichia coli and Identification of Plant-Derived Enzyme Inhibitors” (Molecules, 2015).
Read-outs that look alike come from different tables or passages of the source.

Biological target: T1, human hyaluronidase Hyal-1 (Homo sapiens, UniProt Q12794)
T1 construct: gene HYAL1
T1 sequence (Q12794 22-435): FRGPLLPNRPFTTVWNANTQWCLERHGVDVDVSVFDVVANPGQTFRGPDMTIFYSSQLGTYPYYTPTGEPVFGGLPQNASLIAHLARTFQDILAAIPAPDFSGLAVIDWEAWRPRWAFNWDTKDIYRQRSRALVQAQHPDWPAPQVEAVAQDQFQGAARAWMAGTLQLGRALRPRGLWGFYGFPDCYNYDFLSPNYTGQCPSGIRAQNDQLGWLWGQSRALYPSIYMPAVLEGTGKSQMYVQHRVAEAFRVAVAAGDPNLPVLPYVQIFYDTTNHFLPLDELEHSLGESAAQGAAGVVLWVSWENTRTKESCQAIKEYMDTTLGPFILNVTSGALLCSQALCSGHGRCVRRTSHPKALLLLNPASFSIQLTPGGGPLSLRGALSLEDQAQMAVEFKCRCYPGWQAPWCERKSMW
Test: whole-cell "stains-all" hyaluronidase activity assay with surface-displayed Hyal-1, dose-response
Type: cell-based

| Compound | IC50 (read-out: IC50 Value) | IC50 |
| --- | --- | --- |
| C[C@@H]1O[C@@H](O[C@H]2[C@H](OC(=O)[C@]34CCC(C)(C)C[C@H]3C3=CC[C@@H]5[C@@]6(C)CC[C@H](O[C@H]7O[C@H](C(=O)O)[C@@H](O)[C@H](O[C@@H]8OC[C@@H](O)[C@H](O)[C@H]8O)[C@H]7O[C@@H]7O[C@H](CO)[C@H](O)[C@H](O)[C@H]7O)[C@@](C)(C=O)[C@@H]6CC[C@@]5(C)[C@]3(C)CC4)O[C@H](C)[C@H](O[C@@H]3O[C@H](C)[C@@H](O)[C@H](O)[C@H]3O)[C@@H]2O)[C@H](O)[C@H](O)[C@H]1O[C@@H]1OC[C@@H](O)[C@H](O[C@@H]2OC[C@@H](O)[C@H](O)[C@H]2O)[C@H]1O [SA1641] | 296 µM | – |
| CC1(C)[C@@H](O[C@H]2O[C@H](C(=O)O)[C@@H](O)[C@H](O)[C@H]2O[C@@H]2O[C@H](C(=O)O)[C@@H](O)[C@H](O)[C@H]2O)CC[C@]2(C)[C@H]3C(=O)C=C4[C@@H]5C[C@@](C)(C(=O)O)CC[C@]5(C)CC[C@@]4(C)[C@]3(C)CC[C@@H]12 [glycyrrhizic acid] | – | 177 µM |
| gypsophila saponin 2 | 108 µM | – |
